One compound from article doi:10.1101/2021.12.22.473926v1 (biorxiv, 2021) can be followed below.

The assay has as its target cruzain (Trypanosoma cruzi, UniProt P25779). Put plainly: fluorimetric Z-FR-AMC cleavage, initial rates. Format: biochemical.

A word on the IC50: it is the concentration that inhibits the measured activity by half. Lower therefore signals greater potency.

Sequence of cruzain (P25779 123-337): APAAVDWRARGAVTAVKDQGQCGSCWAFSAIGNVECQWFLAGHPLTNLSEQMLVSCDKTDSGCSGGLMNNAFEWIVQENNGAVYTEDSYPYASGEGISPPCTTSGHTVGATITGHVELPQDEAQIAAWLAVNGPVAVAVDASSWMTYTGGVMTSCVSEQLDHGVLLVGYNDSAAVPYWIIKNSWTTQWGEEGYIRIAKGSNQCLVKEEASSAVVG

As for `CC(C)C[C@H](NC(=O)[C@H]1O[C@@H]1C(=O)O)C(=O)NCCCCN=C(N)N` [E-64, trans-Epoxysuccinyl-L-leucylamido(4-guanidino)butane, reference compound], the IC50 came to 29.7 ± 9.16 nM.
